In ChEMBL document CHEMBL4184221, “Identification and optimization of soluble epoxide hydrolase inhibitors with dual potency towards fatty acid amide hydrolase” (Bioorg Med Chem Lett, 2018):
The source made the active and inactive calls. The calls are words filed in the database; no cut-off is given here.

Key:
[1] = target: T1, Bifunctional epoxide hydrolase 2 (Homo sapiens, UniProt P34913); experiment: Inhibition of human recombinant soluble epoxide hydrolase expressed in baculovirus-infected High Five cells S9 fraction using CMNPC substrate by fluorescence based assay; type: cell-based
T1 sequence (P34913 whole entry): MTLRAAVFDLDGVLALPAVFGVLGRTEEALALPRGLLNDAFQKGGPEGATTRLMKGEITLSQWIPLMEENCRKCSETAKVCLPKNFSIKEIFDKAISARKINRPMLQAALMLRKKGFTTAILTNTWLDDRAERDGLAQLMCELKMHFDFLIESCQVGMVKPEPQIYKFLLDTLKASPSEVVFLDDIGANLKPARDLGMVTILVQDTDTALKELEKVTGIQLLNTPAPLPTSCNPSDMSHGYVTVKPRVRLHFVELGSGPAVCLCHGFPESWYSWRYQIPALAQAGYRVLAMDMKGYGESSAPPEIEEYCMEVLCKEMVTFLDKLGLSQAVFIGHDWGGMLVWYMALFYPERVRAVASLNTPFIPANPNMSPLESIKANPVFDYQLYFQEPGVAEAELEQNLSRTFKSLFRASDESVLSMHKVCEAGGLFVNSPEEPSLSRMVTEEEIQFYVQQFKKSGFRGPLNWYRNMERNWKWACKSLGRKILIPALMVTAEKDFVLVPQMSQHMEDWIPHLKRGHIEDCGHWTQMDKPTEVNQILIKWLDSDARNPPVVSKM

[2] = target: T2, Bifunctional epoxide hydrolase 2 (Homo sapiens) (UniProt P34913)
T2 sequence (whole entry): T1 sequence (P34913 whole entry)

[3] = species: Canis lupus familiaris; experiment: Inhibition of FAAH in dog brain microsomes using OMP substrate by fluorescence based assay; settings: concentration not given here
[4] = (§1) Inhibition of FAAH in horse brain microsomes using OMP substrate by fluorescence based assay; set-up: species or system Equus caballus
[5] = species: Equus caballus; experiment: as §1; settings: concentration not given here
[6] = species: Felis catus; experiment: Inhibition of FAAH in cat brain microsomes using OMP substrate by fluorescence based assay; settings: concentration not given here

O=C(Nc1ccc(Oc2ccc(C(=O)O)cc2)cc1)Nc1ccc(OC(F)(F)F)cc1
IC50 [1]: 7 nM

O=C(Nc1ccc(Cl)cc1)N[C@H]1CC[C@H](Oc2ccc(C(=O)O)cc2)CC1
IC50 [1]: 7 nM

O=C(NC1CCCCC1)N[C@H]1CC[C@H](Oc2ccc(C(=O)O)cc2)CC1
IC50 [1]: 6 nM

O=C(Nc1ccc(OC(F)(F)F)cc1)N[C@H]1CC[C@H](Oc2ccc(C(=O)O)cc2)CC1
TDI [2]: inactive

NC(=O)c1cccc(-c2cccc(OC(=O)NC3CCCCC3)c2)c1 [URB-597]
TDI [2]: Active | inhibition [3]: > 80% | IC50 [1]: 1100 nM | IC50 [4]: 7 nM | inhibition [5]: > 80% | inhibition [6]: > 80%
